pIC50: −log10 of the molar value. Where a SMILES comes first, the peptide text is derived from it. Bridges are numbered along the chain shown (N, C = ends). [ ]: non-standard residue; d: D form. Pen = CC(C)(S)[C@H](N)C(=O)O; dDab = NCC[C@@H](N)C(=O)O; Dab = NCC[C@H](N)C(=O)O
Legend:
[1] = tested on: E. coli ATCC 25922 (parent / WT); assay: microbe, parasite or virus in culture; conditions: CLSI method; parent strain
Method in brief: (§1)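 First, MICs were measured per CLSI. Next, organisms underwent serial passage. Finally, resistant mutants were isolated, their MICs determined, and whole genomes sequenced with bioinformatic analysis.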

[2] = tested on: E. coli ATCC 25922 LptA Q62L mutant; assay: microbe, parasite or virus in culture; conditions: CLSI method; clone harboring LptA Q62L
Method in brief: as §1

[3] = tested on: K. pneumoniae 968733 (CST-R); assay: MIC assay (CLSI); assay type: cell-based, Klebsiella pneumoniae; conditions: CLSI method; colistin-resistant strain
Protocol: MIC assays [Clinical and Laboratory Standards Institute (CLSI) methodology] and serial passage studies were performed as described by Luther et al. ([6]). […] Resistant mutants were isolated, and their MIC values were determined and sent to Microbes NG (Birmingham, United Kingdom) for whole-genome sequencing and bioinformatic analysis.

[4] = tested on: human red blood cells; assay: Haemolysis; assay type: cell-based; conditions: PBS-washed human red blood cells; 1 h at 200 mg/liter, 37°C; OD 540 nm; versus 100% lysis control 2.5% Triton X-100; biological replicates
Protocol: To test their hemolytic potential, compounds were incubated in the presence of phosphate-buffered saline (PBS)–washed human red blood cells. After 1-hour incubation at 200 mg/liter and 37°C, the samples were centrifuged (3220g), the supernatants were diluted in Dulbecco’s PBS, and optical density at 540 nm was determined. The hemolysis induced by the compound was calculated versus a 100% lysis control prepared with 2.5% Triton X-100 (table S4A).

[5] = in vitro; assay type: cell-based; conditions: human
Protocol: (§2) The cytotoxicity of compounds was determined by determining the number of viable cells using the Sigma Cell Counting Kit-8 (WST-8). HeLa cells were incubated at 37°C and 5% CO2 for 24 hours, after which the medium was replaced with fresh medium containing dilutions of compounds. […]

[6] = tested on: HeLa cells; assay: in vitro; assay type: cell-based
Protocol: as §2

In the case of CC[C@H](C)[C@H](NC(=O)[C@@H](NC(=O)[C@@H]1CCCN1C(=O)[C@@H](N)C(C)C)[C@@H](C)CC)C(=O)N[C@@H](Cc1ccc(O)cc1)C(=O)N[C@@H]1C(=O)N[C@@H](CC(N)=O)C(=O)N[C@@H](CCCNC(=N)N)C(=O)N[C@@H](CCN)C(=O)N[C@@H]([C@@H](C)O)C(=O)N[C@H](CCN)C(=O)N[C@@H](CCCCN)C(=O)N[C@H](C(=O)N[C@@H](CCN)C(=O)N[C@@H](CCCNC(=N)N)C(=O)N[C@@H](Cc2ccc(O)cc2)C(=O)O)CSSC1(C)C [Compound 3] (H-VPIIY[Pen]NR[Dab]T[dDab]KC[Dab]RY-OH; disulfide 6-13), the “MIC E. coli ATCC 25922 Parent” value [1] was 0.063 micrograms per milliliter, the “MIC E. coli ATCC 25922 Q62L mutant” value [2] was 1 micrograms per milliliter and the “MIC K. pneumoniae 968733 (CST-R) Parent” value [3] was 0.25 micrograms per milliliter. For the same compound, the “Haemolysis % at 0.2 g/L” value [4] was 0%, the IC50 at 48 h [5] was 41 µM and the pIC50 [6] was 4.40.

From paper PMC10208570, “Peptidomimetic antibiotics disrupt the lipopolysaccharide transport bridge of drug-resistant Enterobacteriaceae” (Science Advances, 2023)
